The results in this text go back to patent publication US11560370B1, “5-membered heteroaryl carboxamide compounds for treatment of HBV” (Assembly Biosciences, Inc., priority 2018, dated 2023).

The first experiment relates to HBV. Put plainly: Viral production from HepAD38 cells, viral load by qPCR of HBV core sequence. The class given is cell-based. The conditions noted are these: 5 days, supernatant HBV DNA by qPCR, read-out: Viral Load EC50 Activity range. The method, then: Assay Measuring Activity of Test Compounds on Viral Production from HepAD38 Cells
HepAD38 cells grown in a T-150 flask (Corning, cat #: 430825) with Growth Medium (DMEM/F12 (1:1) (Hyclone, cat #: SH30023.02), 1× Pen/Strep (Invitrogen, cat #: 15140-122), 10% FBS (Tissue Culture Biologics, cat #: 101), 250 μg/mL G418 (Alfa Aesar, cat #: J62671), 1 μg/mL Tetracycline (Teknova, cat #: T3320)) were detached with 0.25% trypsin-EDTA to (Invitrogen, cat #: 25200-056). Tetracycline-free treatment medium (15 mL DMEM/F12 (1:1) 1× Pen/step, with 2% FBS, Tet-system approved (Clontech, cat #: 631106) were then added to mix, transferred into a 50 ml conical tube (Falcon, cat #: 21008-918,) and spun at 1300 rpm for 5 min. Pelleted cells were then re-suspended/washed with 50 mL of 1×DPBS (Invitrogen, cat #: 14190-136) 2 times and 50 mL treatment medium twice. HepAD38 cells were then re-suspended with 10 mL of treatment medium, syringed and counted. Wells of 96-well clear bottom TC plate (Corning, cat #: 3904,) were seeded at 50,000 cells/well in 180 μL of treatment medium, and 20 μL of either 10% DMSO (Sigma, cat #: D4540) as controls or a 10× solution of test compounds in 10% DMSO in treatment media was added for a final compound concentration starting at 10 μM, and plates were incubated in 5% CO2 incubator at 37° C. for 5 days.
Subsequently viral load production was assayed by quantitative PCR (qPCR) of the HBV core sequence. PCR reaction mixture containing forward primers HBV-f 5′-CTGTGCCTTGGGTGGCTTT-3′ (IDT DNA), Reverse primers HBV-r 5′-[…]-3′ (IDT DNA), Fluorescent TaqMan™ Probes HBV-probe 5′-FAM/AGCTCCAAA/ZEN/[…]/3IABkFQ-3′ (IDT DNA), 10 μL/well of PerfeCTa® qPCR ToughMix® (Quanta Biosciences, Cat #: 95114-05K), and 6 μL/well of DEPC water (Alfa Aesar, cat #: J62087) was prepared. […] of supernatant was added to 16 μL of the reaction mixture in a qPCR plate (Applied Biosytems, Cat #: 4309849), sealed with a film (Applied Biosystems, Cat #: 4311971), centrifuged for a few seconds, and subsequently run on an Applied Biosystems VIIA7. The PCR mixture was incubated at 45° C. for 5 min, then 95° C. for 10 min, followed by 40 cycles of 10 seconds at 95° C. and 20 seconds at 60° C. Viral load was quantified against known HBV DNA standards by using ViiA™ 7 Software. Viral load in the supernatant from wells with treated cells were compared against viral load in supernatant from DMSO control wells (>3 per plate). Cell viability assay was performed with CellTiter-Glo Luminescent Cell Viability Assay (Promega, cat #: G7573) with modification. Mixed appropriate amount of CellTiter-Glo (CTG) 1×DPBS in a 1:1 ratio, added 100 uL of the mixture to each well followed completely removal of all supernatant in each well without touching cell surface. Incubated the plate at room temperature for 10 min on an orbital shaker, and then read the plate with a plate reader (TECAN M1000 or Envision). EC50 or CC50 values were calculated through curve-fitting of the four-parameter nonlinear-logistic-regression model (GraphPad Prism or Dotmatics). CC50 values were all >10 μM.
In general terms: Quantitative PCR measures a nucleic acid by following its amplification.
Broadly, the EC50 is the concentration at which the effect is half-maximal. As for `COc1ccccc1C1CCC(c2nn(C)c(N)c2C(=O)Nc2ccc(F)c(Cl)c2)C1` (single isomer, unassigned) [AIA-275B, 5-Amino-N-(3-chloro-4-fluorophenyl)-3-(3-(2-methoxyphenyl)cyclopentyl)-1-methyl-1H-pyrazole-4-carboxamide], the EC50 lay within 100 to 500 nM.

As to `COc1ccccc1C1CCC(c2nn(C)c(N)c2C(=O)Nc2ccc(F)c(Cl)c2)C1` (single isomer, unassigned) [AIA-275D, 5-Amino-N-(3-chloro-4-fluorophenyl)-3-(3-(2-methoxyphenyl)cyclopentyl)-1-methyl-1H-pyrazole-4-carboxamide], the EC50 was < 100 nM.

With `CC(C)OCC1(O)CC2CC(c3nn(C)c(N)c3C(=O)Nc3ccc(F)c(Cl)c3)CC2C1` (single isomer, unassigned) [AIA-339-1, 5-Amino-N-(3-chloro-4-fluorophenyl)-3-(5-hydroxy-5-(isopropoxymethyl)octahydropentalen-2-yl)-1-methyl-1H-pyrazole-4-carboxamide], the EC50 was 500 to 10000 nM.

Take `CC(C)OCC1(O)CC2CC(c3nn(C)c(N)c3C(=O)Nc3ccc(F)c(Cl)c3)CC2C1` (single isomer, unassigned) [AIA-339-2, 5-Amino-N-(3-chloro-4-fluorophenyl)-3-(5-hydroxy-5-(isopropoxymethyl)octahydropentalen-2-yl)-1-methyl-1H-pyrazole-4-carboxamide]: the EC50 lay in the range of 100 to 500 nM.

On to `COc1cc(-c2ncc[nH]2)ccc1C1CCC(c2nn(C)c(N)c2C(=O)Nc2ccc(F)c(Cl)c2)C1` (single isomer, unassigned) [AIA-352-1, 3-(3-(4-(1H-Imidazol-2-yl)-2-methoxyphenyl)cyclopentyl)-5-amino-N-(3-chloro-4-fluorophenyl)-1-methyl-1H-pyrazole-4-carboxamide], for which the 50% effective concentration (EC50) lay in the range of 500 to 10000 nM.

For `COc1cc(-c2ncc[nH]2)ccc1C1CCC(c2nn(C)c(N)c2C(=O)Nc2ccc(F)c(Cl)c2)C1` (single isomer, unassigned) [AIA-352-2, 3-(3-(4-(1H-Imidazol-2-yl)-2-methoxyphenyl)cyclopentyl)-5-amino-N-(3-chloro-4-fluorophenyl)-1-methyl-1H-pyrazole-4-carboxamide], the EC50 is < 100 nM.

As to `Cn1nc(C2CC3CC(O)(CN4CCCCC4)CC3C2)c(C(=O)Nc2ccc(F)c(Cl)c2)c1N` (single isomer, unassigned) [AIA-363-2, 5-Amino-N-(3-chloro-4-fluorophenyl)-3-(5-hydroxy-5-(piperidin-1-ylmethyl)octahydropentalen-2-yl)-1-methyl-1H-pyrazole-4-carboxamide], the EC50 was in the range of 100 to 500 nM.

For the molecule `COc1cc(-c2nccn2C)ccc1C1CCC(c2nn(C)c(N)c2C(=O)Nc2ccc(F)c(Cl)c2)C1` (single isomer, unassigned) [AIA-367-2, 5-Amino-N-(3-chloro-4-fluorophenyl)-3-(3-(2-methoxy-4-(1-methyl-1H-imidazol-2-yl)phenyl)cyclopentyl)-1-methyl-1H-pyrazole-4-carboxamide], the 50% effective concentration (EC50) is < 100 nM.

Staying with this experiment, now noted: Hepatitis B virus, HePAD38, 120 h, 5 days, supernatant HBV DNA by qPCR, read-out: Viral Load EC50 Activity range.
Regarding `Cn1nc(C2CC3CC(O)(CS(=O)(=O)CCO)CC3C2)c(C(=O)Nc2ccc(F)c(Cl)c2)c1N` (single isomer, unassigned) [AIA-266-1, 5-Amino-N-(3-chloro-4-fluorophenyl)-3-(5-hydroxy-5-(((2-hydroxyethyl)sulfonyl)methyl)octahydropentalen-2-yl)-1-methyl-1H-pyrazole-4-carboxamide], the half-maximal effective concentration (EC50) is < 100 nM.

Consider `COc1ccccc1C1CCC(c2nn(C)c(N)c2C(=O)Nc2ccc(F)c(Cl)c2)C1` (single isomer, unassigned) [AIA-275A, 5-Amino-N-(3-chloro-4-fluorophenyl)-3-(3-(2-methoxyphenyl)cyclopentyl)-1-methyl-1H-pyrazole-4-carboxamide], for which the EC50 fell in the range of 100 to 500 nM.

As for `COc1cccc(C2CCC(c3nn(C)c(N)c3C(=O)Nc3ccc(F)c(Cl)c3)C2)c1` (single isomer, unassigned) [AIA-276D, 5-Amino-N-(3-chloro-4-fluorophenyl)-3-(3-(3-methoxyphenyl)cyclopentyl)-1-methyl-1H-pyrazole-4-carboxamide], the EC50 is < 100 nM.

As for `Cn1nc(C2CC3CC(O)(CSCCO)CC3C2)c(C(=O)Nc2ccc(F)c(Cl)c2)c1N` (single isomer, unassigned) [AIA-283-1, 5-Amino-N-(3-chloro-4-fluorophenyl)-3-(5-hydroxy-5-(((2-hydroxyethyl)thio)methyl)octahydropentalen-2-yl)-1-methyl-1H-pyrazole-4-carboxamide], the EC50 was < 100 nM.

Take `Cn1nc(C2CC3CC(O)(CSCCN4CCOCC4)CC3C2)c(C(=O)Nc2ccc(F)c(Cl)c2)c1N` (single isomer, unassigned) [AIA-284-1, 5-Amino-N-(3-chloro-4-fluorophenyl)-3-(5-hydroxy-5-(((2-morpholinoethyl)thio)methyl)octahydropentalen-2-yl)-1-methyl-1H-pyrazole-4-carboxamide]: the EC50 was < 100 nM.

For `Cn1nc(C2CC3CC(O)(CS(=O)(=O)CCCN4CCCCC4)CC3C2)c(C(=O)Nc2ccc(F)c(Cl)c2)c1N` (single isomer, unassigned) [AIA-349-b, 5-Amino-N-(3-chloro-4-fluorophenyl)-3-(5-hydroxy-5-(((3-(piperidin-1-yl)propyl)sulfonyl)methyl)octahydropentalen-2-yl)-1-methyl-1H-pyrazole-4-carboxamide], the concentration giving a half-maximal response (EC50) is 100 to 500 nM.

Take `Cn1nc(C2CC3CC(O)(CS(=O)(=O)CCCN4CCNCC4=O)CC3C2)c(C(=O)Nc2ccc(F)c(Cl)c2)c1N` (single isomer, unassigned) [AIA-351-a, 5-Amino-N-(3-chloro-4-fluorophenyl)-3-(5-hydroxy-5-(((3-(2-oxopiperazin-1-yl)propyl)sulfonyl)methyl)octahydropentalen-2-yl)-1-methyl-1H-pyrazole-4-carboxamide]: the 50% effective concentration (EC50) was 500 to 10000 nM.

Regarding `Cn1nc(C2CC3CC(O)(CN4CCCCC4)CC3C2)c(C(=O)Nc2ccc(F)c(Cl)c2)c1N` (single isomer, unassigned) [AIA-363-1, 5-Amino-N-(3-chloro-4-fluorophenyl)-3-(5-hydroxy-5-(piperidin-1-ylmethyl)octahydropentalen-2-yl)-1-methyl-1H-pyrazole-4-carboxamide], the EC50 lay within 100 to 500 nM.

On to `Cn1nc(C2CC3CC(O)(CN4CCOCC4)CC3C2)c(C(=O)Nc2ccc(F)c(Cl)c2)c1N` (single isomer, unassigned) [AIA-364-2, 5-Amino-N-(3-chloro-4-fluorophenyl)-3-(5-hydroxy-5-(morpholinomethyl)octahydropentalen-2-yl)-1-methyl-1H-pyrazole-4-carboxamide], for which the EC50 was in the range of 100 to 500 nM.

As for `COc1cc(-c2cn(C)cn2)ccc1C1CCC(c2nn(C)c(N)c2C(=O)Nc2ccc(F)c(Cl)c2)C1` (single isomer, unassigned) [AIA-365-2, 5-Amino-N-(3-chloro-4-fluorophenyl)-3-(3-(2-methoxy-4-(1-methyl-1H-imidazol-4-yl)phenyl)cyclopentyl)-1-methyl-1H-pyrazole-4-carboxamide], the EC50 is < 100 nM.

Consider `COc1cc(-c2c[nH]cn2)ccc1C1CCC(c2nn(C)c(N)c2C(=O)Nc2ccc(F)c(Cl)c2)C1` (single isomer, unassigned) [AIA-366-2, 3-(3-(4-(1H-Imidazol-4-yl)-2-methoxyphenyl)cyclopentyl)-5-amino-N-(3-chloro-4-fluorophenyl)-1-methyl-1H-pyrazole-4-carboxamide], for which the EC50 is < 100 nM.

`COc1cc(-c2nccn2C)ccc1C1CCC(c2nn(C)c(N)c2C(=O)Nc2ccc(F)c(Cl)c2)C1` (single isomer, unassigned) [AIA-367-1, 5-Amino-N-(3-chloro-4-fluorophenyl)-3-(3-(2-methoxy-4-(1-methyl-1H-imidazol-2-yl)phenyl)cyclopentyl)-1-methyl-1H-pyrazole-4-carboxamide]: the concentration giving a half-maximal response (EC50) was in the range of 100 to 500 nM.
